Experimental data reported in ChEMBL document CHEMBL1140464, “Synthesis and structure-activity relationship of 4-(2-aryl-cyclopropylamino)-quinoline-3-carbonitriles as EGFR tyrosine kinase inhibitors” (Bioorg Med Chem Lett, 2007).

Experiments:
[1] = molecular target: T1, Epidermal growth factor receptor (Homo sapiens, UniProt P00533); assay: Inhibition of human EGFR autophosphorylation in A431 cells
[2] = molecular target: T1, Epidermal growth factor receptor; assay: Inhibition of human recombinant EGFR by fluorescence polarization assay
[3] = molecular target: Proto-oncogene tyrosine-protein kinase Src (Homo sapiens, UniProt P12931); assay: Inhibition of SRC
[4] = molecular target: Tyrosine-protein kinase SYK (Homo sapiens, UniProt P43405); assay: Inhibition of SYK
[5] = molecular target: Vascular endothelial growth factor receptor 2 (Homo sapiens, UniProt P35968); assay: Inhibition of KDR
[6] = molecular target: Tyrosine-protein kinase ABL1 (Homo sapiens, UniProt P00519); assay: Inhibition of ABL
[7] = molecular target: Vascular endothelial growth factor receptor 1 (Homo sapiens, UniProt P17948); assay: Inhibition of Flt1
Chain of Vascular endothelial growth factor receptor 1 (P17948 whole entry): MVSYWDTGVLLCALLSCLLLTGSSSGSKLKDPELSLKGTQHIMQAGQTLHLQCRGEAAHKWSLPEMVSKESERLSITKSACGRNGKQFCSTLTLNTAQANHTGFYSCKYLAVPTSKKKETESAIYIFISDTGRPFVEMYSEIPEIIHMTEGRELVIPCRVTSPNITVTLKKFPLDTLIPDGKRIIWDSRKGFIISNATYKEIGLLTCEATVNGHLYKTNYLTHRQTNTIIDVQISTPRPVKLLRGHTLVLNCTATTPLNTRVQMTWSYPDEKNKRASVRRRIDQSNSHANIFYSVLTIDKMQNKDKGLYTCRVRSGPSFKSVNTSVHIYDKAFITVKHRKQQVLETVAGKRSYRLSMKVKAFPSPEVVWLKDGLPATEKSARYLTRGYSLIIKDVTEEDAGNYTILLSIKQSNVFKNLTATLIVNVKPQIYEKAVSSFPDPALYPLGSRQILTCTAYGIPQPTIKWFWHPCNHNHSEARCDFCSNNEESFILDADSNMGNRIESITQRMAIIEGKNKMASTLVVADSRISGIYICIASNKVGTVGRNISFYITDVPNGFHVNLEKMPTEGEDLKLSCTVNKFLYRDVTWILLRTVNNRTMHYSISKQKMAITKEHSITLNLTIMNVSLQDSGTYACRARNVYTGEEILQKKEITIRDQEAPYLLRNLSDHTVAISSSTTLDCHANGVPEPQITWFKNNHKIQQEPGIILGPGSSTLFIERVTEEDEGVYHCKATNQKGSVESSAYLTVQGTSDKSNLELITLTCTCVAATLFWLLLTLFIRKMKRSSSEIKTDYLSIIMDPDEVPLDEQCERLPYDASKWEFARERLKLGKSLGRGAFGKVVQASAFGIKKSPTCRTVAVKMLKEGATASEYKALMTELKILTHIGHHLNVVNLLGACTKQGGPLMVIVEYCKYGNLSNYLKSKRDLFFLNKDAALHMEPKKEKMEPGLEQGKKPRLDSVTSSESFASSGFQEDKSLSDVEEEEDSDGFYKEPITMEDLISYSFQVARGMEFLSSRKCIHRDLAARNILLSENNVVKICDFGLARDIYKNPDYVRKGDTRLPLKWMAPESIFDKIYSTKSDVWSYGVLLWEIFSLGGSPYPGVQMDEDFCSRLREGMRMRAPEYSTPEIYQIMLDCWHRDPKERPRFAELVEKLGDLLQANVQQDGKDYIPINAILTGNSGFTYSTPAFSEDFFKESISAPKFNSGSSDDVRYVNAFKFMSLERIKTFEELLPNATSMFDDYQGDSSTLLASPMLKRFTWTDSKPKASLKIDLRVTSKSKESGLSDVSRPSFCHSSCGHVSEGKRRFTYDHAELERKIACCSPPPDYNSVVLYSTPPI

T1 sequence (P00533 whole entry): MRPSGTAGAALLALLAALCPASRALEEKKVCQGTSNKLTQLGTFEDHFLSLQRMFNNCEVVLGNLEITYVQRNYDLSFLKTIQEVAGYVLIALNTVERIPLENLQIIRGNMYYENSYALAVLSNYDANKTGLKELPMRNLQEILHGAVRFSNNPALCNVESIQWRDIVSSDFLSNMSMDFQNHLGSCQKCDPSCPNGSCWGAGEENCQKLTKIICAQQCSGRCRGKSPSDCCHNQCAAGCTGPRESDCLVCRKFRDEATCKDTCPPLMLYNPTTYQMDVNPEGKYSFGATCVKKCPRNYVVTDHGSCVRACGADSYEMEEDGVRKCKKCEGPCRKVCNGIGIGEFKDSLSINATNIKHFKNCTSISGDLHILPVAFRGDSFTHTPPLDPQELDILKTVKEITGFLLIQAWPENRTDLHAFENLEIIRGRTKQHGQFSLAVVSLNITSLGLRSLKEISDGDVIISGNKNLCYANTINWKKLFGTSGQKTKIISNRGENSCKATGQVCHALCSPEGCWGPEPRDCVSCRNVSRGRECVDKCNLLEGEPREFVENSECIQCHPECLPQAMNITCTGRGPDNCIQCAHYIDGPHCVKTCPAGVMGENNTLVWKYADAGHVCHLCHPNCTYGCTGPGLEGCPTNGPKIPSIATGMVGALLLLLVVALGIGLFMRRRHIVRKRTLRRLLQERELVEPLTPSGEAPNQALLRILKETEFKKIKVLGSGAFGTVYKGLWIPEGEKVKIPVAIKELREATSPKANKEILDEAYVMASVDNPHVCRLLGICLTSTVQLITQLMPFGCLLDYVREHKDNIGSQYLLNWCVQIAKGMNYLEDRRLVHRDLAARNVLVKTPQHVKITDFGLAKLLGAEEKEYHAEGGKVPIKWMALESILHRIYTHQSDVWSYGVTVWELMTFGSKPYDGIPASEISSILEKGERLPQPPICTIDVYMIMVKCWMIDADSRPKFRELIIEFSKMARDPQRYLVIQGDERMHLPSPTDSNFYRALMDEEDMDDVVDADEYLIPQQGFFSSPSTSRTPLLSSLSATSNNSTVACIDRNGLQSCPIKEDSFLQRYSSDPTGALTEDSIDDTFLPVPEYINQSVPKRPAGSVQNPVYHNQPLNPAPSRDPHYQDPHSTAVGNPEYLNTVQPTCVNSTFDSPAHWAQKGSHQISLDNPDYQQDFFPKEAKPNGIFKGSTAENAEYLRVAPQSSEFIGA
Chain of Proto-oncogene tyrosine-protein kinase Src (P12931 2-536 limits assumed): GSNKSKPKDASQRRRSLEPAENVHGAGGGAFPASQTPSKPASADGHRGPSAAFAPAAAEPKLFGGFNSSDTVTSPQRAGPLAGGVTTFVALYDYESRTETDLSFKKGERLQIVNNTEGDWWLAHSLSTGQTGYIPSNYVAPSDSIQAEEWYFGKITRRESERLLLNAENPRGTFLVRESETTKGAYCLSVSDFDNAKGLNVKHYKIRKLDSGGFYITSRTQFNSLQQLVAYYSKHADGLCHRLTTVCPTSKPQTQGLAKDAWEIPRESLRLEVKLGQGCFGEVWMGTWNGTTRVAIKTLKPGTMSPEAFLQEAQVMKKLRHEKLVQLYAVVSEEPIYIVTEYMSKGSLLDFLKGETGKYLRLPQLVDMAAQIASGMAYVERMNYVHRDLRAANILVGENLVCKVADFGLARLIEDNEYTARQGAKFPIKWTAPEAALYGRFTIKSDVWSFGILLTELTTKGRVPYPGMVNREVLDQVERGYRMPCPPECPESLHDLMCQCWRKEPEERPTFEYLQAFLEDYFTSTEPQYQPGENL
Chain of Vascular endothelial growth factor receptor 2 (P35968 whole entry): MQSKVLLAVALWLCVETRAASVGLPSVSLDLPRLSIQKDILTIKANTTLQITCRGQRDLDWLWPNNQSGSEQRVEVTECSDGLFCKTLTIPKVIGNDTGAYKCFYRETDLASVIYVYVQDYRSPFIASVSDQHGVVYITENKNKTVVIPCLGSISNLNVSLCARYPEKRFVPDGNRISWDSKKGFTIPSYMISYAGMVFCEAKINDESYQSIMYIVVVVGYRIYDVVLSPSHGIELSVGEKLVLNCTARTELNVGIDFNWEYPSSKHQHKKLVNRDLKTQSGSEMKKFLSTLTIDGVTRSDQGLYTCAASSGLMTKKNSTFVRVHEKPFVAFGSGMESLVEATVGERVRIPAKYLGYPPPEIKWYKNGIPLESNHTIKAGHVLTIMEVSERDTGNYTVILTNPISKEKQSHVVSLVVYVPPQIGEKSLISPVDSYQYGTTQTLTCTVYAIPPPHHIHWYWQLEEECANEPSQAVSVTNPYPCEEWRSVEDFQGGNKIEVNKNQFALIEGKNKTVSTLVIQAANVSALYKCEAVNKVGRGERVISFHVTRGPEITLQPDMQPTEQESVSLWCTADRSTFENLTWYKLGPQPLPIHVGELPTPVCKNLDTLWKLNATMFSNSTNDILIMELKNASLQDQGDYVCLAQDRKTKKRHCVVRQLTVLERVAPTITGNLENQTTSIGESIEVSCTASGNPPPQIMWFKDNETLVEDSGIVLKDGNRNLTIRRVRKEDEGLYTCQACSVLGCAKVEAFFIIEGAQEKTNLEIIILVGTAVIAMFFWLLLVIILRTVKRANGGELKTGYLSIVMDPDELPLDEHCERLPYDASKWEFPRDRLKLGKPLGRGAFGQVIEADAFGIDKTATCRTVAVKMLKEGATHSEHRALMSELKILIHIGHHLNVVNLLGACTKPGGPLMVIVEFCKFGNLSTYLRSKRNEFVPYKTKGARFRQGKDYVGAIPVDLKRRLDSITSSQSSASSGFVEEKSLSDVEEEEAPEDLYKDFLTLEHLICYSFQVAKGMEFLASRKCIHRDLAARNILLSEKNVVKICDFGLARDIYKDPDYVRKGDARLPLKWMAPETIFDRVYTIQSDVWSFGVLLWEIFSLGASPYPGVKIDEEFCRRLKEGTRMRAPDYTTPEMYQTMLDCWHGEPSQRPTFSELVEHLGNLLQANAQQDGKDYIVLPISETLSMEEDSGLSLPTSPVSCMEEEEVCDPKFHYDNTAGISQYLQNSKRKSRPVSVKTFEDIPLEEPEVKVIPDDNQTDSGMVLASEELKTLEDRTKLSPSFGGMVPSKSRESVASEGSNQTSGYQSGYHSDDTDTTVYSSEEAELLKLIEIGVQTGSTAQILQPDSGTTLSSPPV

| IC50 [1] [nM] | Ki [2] [nM] | Ki [3] [nM] | Ki [4] [nM] | Ki [5] [nM] | Ki [6] [nM] | Ki [7] [nM] | SMILES |
| --- | --- | --- | --- | --- | --- | --- | --- |
| 360 | 360 | > 10000 | > 10000 | > 10000 | > 10000 | 1500 | COc1cc2c(N[C@@H]3C[C@H]3c3ccccc3)c(C#N)cnc2cc1OC1CCN(C)CC1 |
| 5260 | 340 | 280 | > 10000 | > 10000 | > 10000 | > 10000 | N#Cc1cnc2ccc(-c3cccc(CN4CCOCC4)c3)cc2c1N[C@@H]1C[C@H]1c1ccccc1 |
|  | 80 |  |  |  |  |  | COc1cc2ncc(C#N)c(N[C@@H]3C[C@H]3c3ccc(Oc4ccccc4)cc3)c2cc1OC |
|  | 36 |  |  |  |  |  | COc1cc2ncc(C#N)c(N[C@@H]3C[C@H]3c3ccccc3F)c2cc1OC |
| 2530 | 400 | 570 | > 10000 | > 10000 | > 10000 | > 10000 | N#Cc1cnc2ccc(-c3ccc(CN4CCOCC4)cc3)cc2c1N[C@@H]1C[C@H]1c1ccccc1 |
|  | 44 |  |  |  |  |  | COc1cc2ncc(C#N)c(N[C@@H]3C[C@H]3c3ccc(Cl)cc3)c2cc1OC |
| 90 | 24 | 150 | 250 | 2100 | 950 | 1600 | COc1cc2ncc(C#N)c(N[C@@H]3C[C@H]3c3ccccc3)c2cc1OC |
| 2580 | 180 | 170 | > 10000 | > 10000 | > 10000 | > 10000 | COc1ccc2c(N[C@@H]3C[C@H]3c3ccccc3)c(C#N)cnc2c1 |
| 1610 | 120 | 330 | > 10000 | 2600 | > 10000 | > 10000 | COc1cc2ncc(C#N)c(N[C@@H]3C[C@H]3c3ccccc3)c2cc1OCc1ccccc1 |
|  | 52 | > 10000 | > 10000 | 560 | 1800 | 910 | COc1cc2ncc(C#N)c(N[C@@H]3C[C@H]3c3ccccc3)c2cc1OCCCN1CCOCC1 |
| 68 | 68 | > 10000 | > 10000 | 650 | 1800 | 1710 | COc1cc2ncc(C#N)c(N[C@@H]3C[C@H]3c3ccccc3)c2cc1OCCCc1cccnc1 |
| 173 | 220 | 49 | 140 | 99 | 300 | 1900 | COc1cc2c(N[C@@H]3C[C@H]3c3ccccc3)c(C#N)cnc2cc1OCCCc1cccnc1 |
|  | 52 |  |  |  |  |  | COc1cc2ncc(C#N)c(N[C@@H]3C[C@H]3c3cccc(Br)c3)c2cc1OC |
| 234 | 80 | 140 |  | 170 |  | 920 | N#Cc1cnc2cc(-c3ccc(CN4CCOCC4)cc3)ccc2c1N[C@@H]1C[C@H]1c1ccccc1 |
|  | 220 |  |  |  |  |  | COc1cc2ncc(C#N)c(N[C@@H]3C[C@H]3c3ccc(Br)cc3)c2cc1OC |
| 405 | 64 | > 10000 | > 10000 | 150 | > 10000 | > 10000 | COc1cc2ncc(C#N)c(N[C@@H]3C[C@H]3c3ccccc3)c2cc1OCCN1CCOCC1 |
| 8270 | 360 | 210 | > 10000 | > 10000 | > 10000 | > 10000 | COc1ccc2ncc(C#N)c(N[C@@H]3C[C@H]3c3ccccc3)c2c1 |

| SMILES | IC50 [1] [nM] | Ki [2] [nM] | Ki [3] [nM] | Ki [4] [nM] | Ki [5] [nM] | Ki [6] [nM] | Ki [7] [nM] |
| --- | --- | --- | --- | --- | --- | --- | --- |
| N#Cc1cnc2ccc(-c3ccc(CN)cc3)cc2c1N[C@@H]1C[C@H]1c1ccccc1 | 2100 | 40 | 86 | 450 | 1500 | 770 | 1400 |
| COc1cc2c(N[C@@H]3C[C@H]3c3ccccc3)c(C#N)cnc2cc1OCCCN1CCOCC1 |  |  | 45 | > 10000 | 420 | 200 | 350 |
| COc1cc2c(N[C@@H]3C[C@H]3c3ccccc3)c(C#N)cnc2cc1OCCCN1CCN(C)CC1 | 5.7 | 3 | 27 | 41 | 300 | 44 | 110 |
| COCCOc1cc2ncc(C#N)c(N[C@@H]3C[C@H]3c3ccccc3)c2cc1OC | 52.8 | 60 | 110 | 160 | 140 | 390 | 2900 |
